Reference: ChEMBL document CHEMBL3046788, “Synthesis and antifungal activity of N-(substituted pyridinyl)-1-methyl(phenyl)-3-(trifluoromethyl)-1H-pyrazole-4-carboxamide derivatives” (Molecules, 2012)
≈ marks a conversion by molar mass, not a printed value.

Columns and labels:
Fusarium oxysporum [1] = assay: Antifungal activity against Fusarium oxysporum assessed as inhibition of mycelium growth at 100 ug/ml; format: functional; settings: read-out: GI
Cytospora [2] = assay: Antifungal activity against Cytospora mandshurica assessed as inhibition of mycelium growth at 100 ug/ml; format: functional; settings: read-out: GI
Fusarium graminearum [3] = assay: microbe, parasite or virus in culture; format: functional; settings: read-out: GI
Cytospora [4] = assay: Antifungal activity against Cytospora mandshurica assessed as inhibition of mycelium growth; format: functional, organism-based
Fusarium oxysporum [5] = assay: Antifungal activity against Fusarium oxysporum assessed as inhibition of mycelium growth; format: functional, organism-based
Fusarium graminearum [6] = assay: Antifungal activity against Fusarium graminearum assessed as inhibition of mycelium growth; format: functional, organism-based

Question: How did the inhibition of growth at 100 µg/mL (Fusarium oxysporum [1]) turn out when Cn1cc(C(=O)Nc2ccccn2)c(C(F)(F)F)n1 was run?
Answer: Its inhibition of growth at 100 µg/mL is 19.5%.

Question: And the inhibition of growth at 100 µg/mL (Cytospora [2])?
Answer: The inhibition of growth at 100 µg/mL was 9%.

Question: What about the inhibition of growth at 100 µg/mL (Fusarium graminearum [3]) of the same molecule?
Answer: The inhibition of growth at 100 µg/mL was 40.9%.

Question: Which inhibition of growth at 100 µg/mL (Fusarium oxysporum [1]) does the source give for Cn1cc(C(=O)Nc2ccc(F)cn2)c(C(F)(F)F)n1 here?
Answer: Its inhibition of growth at 100 µg/mL is 22.5%.

Question: What about the inhibition of growth at 100 µg/mL (Cytospora [2]) of the same molecule?
Answer: The inhibition of growth at 100 µg/mL was 13.6%.

Question: What about the inhibition of growth at 100 µg/mL (Fusarium graminearum [3]) of the same molecule?
Answer: Its inhibition of growth at 100 µg/mL is 30.4%.

Question: Cn1cc(C(=O)Nc2ccnc(Br)c2)c(C(F)(F)F)n1 was tested. Which inhibition of growth at 100 µg/mL (Fusarium oxysporum [1]) did it give?
Answer: Its inhibition of growth at 100 µg/mL is 10.9%.

Question: And the inhibition of growth at 100 µg/mL (Cytospora [2])?
Answer: The inhibition of growth at 100 µg/mL was 6.4%.

Question: And the inhibition of growth at 100 µg/mL (Fusarium graminearum [3])?
Answer: Its inhibition of growth at 100 µg/mL is 25.2%.

Question: Which results are given for Cn1cc(C(=O)Nc2ccc(Br)cn2)c(C(F)(F)F)n1?
Answer: EC50 (Cytospora [4]): 132 µg/mL (≈ 380 µM); EC50 (Fusarium oxysporum [5]): 97.8 µg/mL (≈ 280 µM); inhibition of growth at 100 µg/mL (Fusarium oxysporum [1]): 53.5%; inhibition of growth at 100 µg/mL (Cytospora [2]): 48.7%; EC50 (Fusarium graminearum [6]): 76.3 µg/mL (≈ 219 µM); inhibition of growth at 100 µg/mL (Fusarium graminearum [3]): 73.2%

Question: Which inhibition of growth at 100 µg/mL (Fusarium oxysporum [1]) does the source give for Cn1cc(C(=O)Nc2ccc(C(F)(F)F)cn2)c(C(F)(F)F)n1 here?
Answer: Its inhibition of growth at 100 µg/mL is 39.1%.

Question: What about the inhibition of growth at 100 µg/mL (Cytospora [2]) of the same molecule?
Answer: The inhibition of growth at 100 µg/mL was 35.6%.

Question: And the inhibition of growth at 100 µg/mL (Fusarium graminearum [3])?
Answer: Its inhibition of growth at 100 µg/mL is 51.6%.

Question: Which inhibition of growth at 100 µg/mL (Fusarium oxysporum [1]) does the source give for O=C(Nc1ccccc1-c1ccc(Cl)cc1)c1cccnc1Cl [BOSCALID] here?
Answer: The inhibition of growth at 100 µg/mL was 4.3%.

Question: And the inhibition of growth at 100 µg/mL (Cytospora [2])?
Answer: Its inhibition of growth at 100 µg/mL is 3.4%.

Question: And the inhibition of growth at 100 µg/mL (Fusarium graminearum [3])?
Answer: The inhibition of growth at 100 µg/mL was 35.9%.

Question: What does the source list for O=C(Nc1ccccn1)c1cn(-c2ccccc2)nc1C(F)(F)F?
Answer: inhibition of growth at 100 µg/mL (Fusarium oxysporum [1]): 23.9%; inhibition of growth at 100 µg/mL (Cytospora [2]): 17%; inhibition of growth at 100 µg/mL (Fusarium graminearum [3]): 35.2%

Question: How did the inhibition of growth at 100 µg/mL (Fusarium oxysporum [1]) turn out when Cc1cnccc1NC(=O)c1cn(-c2ccccc2)nc1C(F)(F)F was run?
Answer: Its inhibition of growth at 100 µg/mL is 11.5%.

Question: And the inhibition of growth at 100 µg/mL (Cytospora [2])?
Answer: Its inhibition of growth at 100 µg/mL is 6.1%.

Question: What about the inhibition of growth at 100 µg/mL (Fusarium graminearum [3]) of the same molecule?
Answer: Its inhibition of growth at 100 µg/mL is 6.7%.

Question: Which results are given for Cc1cc(NC(=O)c2cn(-c3ccccc3)nc2C(F)(F)F)ccn1?
Answer: inhibition of growth at 100 µg/mL (Fusarium oxysporum [1]): 4.23%; inhibition of growth at 100 µg/mL (Cytospora [2]): 0%; inhibition of growth at 100 µg/mL (Fusarium graminearum [3]): 9.8%

Question: How did the inhibition of growth at 100 µg/mL (Fusarium oxysporum [1]) turn out when Cc1ccc(NC(=O)c2cn(C)nc2C(F)(F)F)nc1 was run?
Answer: Its inhibition of growth at 100 µg/mL is 8.3%.

Question: What about the inhibition of growth at 100 µg/mL (Cytospora [2]) of the same molecule?
Answer: The inhibition of growth at 100 µg/mL was 0%.

Question: What about the inhibition of growth at 100 µg/mL (Fusarium graminearum [3]) of the same molecule?
Answer: The inhibition of growth at 100 µg/mL was 39.3%.

Question: What does the source list for Cc1ccc(NC(=O)c2cn(-c3ccccc3)nc2C(F)(F)F)nc1?
Answer: inhibition of growth at 100 µg/mL (Fusarium oxysporum [1]): 20.5%; inhibition of growth at 100 µg/mL (Cytospora [2]): 0%; inhibition of growth at 100 µg/mL (Fusarium graminearum [3]): 6.4%

Question: How did the inhibition of growth at 100 µg/mL (Fusarium oxysporum [1]) turn out when O=C(Nc1ccncc1Br)c1cn(-c2ccccc2)nc1C(F)(F)F was run?
Answer: The inhibition of growth at 100 µg/mL was 27.2%.

Question: What about the inhibition of growth at 100 µg/mL (Cytospora [2]) of the same molecule?
Answer: Its inhibition of growth at 100 µg/mL is 8.4%.

Question: What about the inhibition of growth at 100 µg/mL (Fusarium graminearum [3]) of the same molecule?
Answer: The inhibition of growth at 100 µg/mL was 22.6%.

Question: Which results are given for O=C(Nc1ccnc(Br)c1)c1cn(-c2ccccc2)nc1C(F)(F)F?
Answer: inhibition of growth at 100 µg/mL (Fusarium oxysporum [1]): 5.7%; inhibition of growth at 100 µg/mL (Cytospora [2]): 0%; inhibition of growth at 100 µg/mL (Fusarium graminearum [3]): 10.7%

Question: Which results are given for Cn1cc(C(=O)Nc2ccc(Cl)cn2)c(C(F)(F)F)n1?
Answer: inhibition of growth at 100 µg/mL (Fusarium oxysporum [1]): 30.1%; inhibition of growth at 100 µg/mL (Cytospora [2]): 13.6%; inhibition of growth at 100 µg/mL (Fusarium graminearum [3]): 26%

Question: Which results are given for Cc1cccc(NC(=O)c2cn(C)nc2C(F)(F)F)n1?
Answer: inhibition of growth at 100 µg/mL (Fusarium oxysporum [1]): 22.3%; inhibition of growth at 100 µg/mL (Cytospora [2]): 20.8%; inhibition of growth at 100 µg/mL (Fusarium graminearum [3]): 34.7%

Question: Which inhibition of growth at 100 µg/mL (Fusarium oxysporum [1]) does the source give for O=C(Nc1ccc(Cl)cn1)c1cn(-c2ccccc2)nc1C(F)(F)F here?
Answer: Its inhibition of growth at 100 µg/mL is 14.2%.

Question: What about the inhibition of growth at 100 µg/mL (Cytospora [2]) of the same molecule?
Answer: Its inhibition of growth at 100 µg/mL is 10.1%.

Question: What about the inhibition of growth at 100 µg/mL (Fusarium graminearum [3]) of the same molecule?
Answer: Its inhibition of growth at 100 µg/mL is 16.5%.

Question: What does the source list for Cn1cc(C(=O)Nc2ccnc(Cl)c2)c(C(F)(F)F)n1?
Answer: inhibition of growth at 100 µg/mL (Fusarium oxysporum [1]): 5.9%; inhibition of growth at 100 µg/mL (Cytospora [2]): 9.1%; inhibition of growth at 100 µg/mL (Fusarium graminearum [3]): 60.1%

Question: With Cn1cc(C(=O)Nc2cccnc2Cl)c(C(F)(F)F)n1 as the molecule, how does the inhibition of growth at 100 µg/mL (Fusarium oxysporum [1]) read?
Answer: Its inhibition of growth at 100 µg/mL is 14.9%.

Question: What about the inhibition of growth at 100 µg/mL (Cytospora [2]) of the same molecule?
Answer: Its inhibition of growth at 100 µg/mL is 4.9%.

Question: What about the inhibition of growth at 100 µg/mL (Fusarium graminearum [3]) of the same molecule?
Answer: The inhibition of growth at 100 µg/mL was 40.4%.

Question: Cc1ccnc(NC(=O)c2cn(C)nc2C(F)(F)F)c1 was tested. Which inhibition of growth at 100 µg/mL (Fusarium oxysporum [1]) did it give?
Answer: Its inhibition of growth at 100 µg/mL is 6.9%.

Question: What about the inhibition of growth at 100 µg/mL (Cytospora [2]) of the same molecule?
Answer: Its inhibition of growth at 100 µg/mL is 1.74%.

Question: And the inhibition of growth at 100 µg/mL (Fusarium graminearum [3])?
Answer: The inhibition of growth at 100 µg/mL was 25.2%.

Question: For O=C(Nc1cccnc1)c1cn(-c2ccccc2)nc1C(F)(F)F, which inhibition of growth at 100 µg/mL (Fusarium oxysporum [1]) is on record?
Answer: Its inhibition of growth at 100 µg/mL is 10.6%.

Question: What about the inhibition of growth at 100 µg/mL (Cytospora [2]) of the same molecule?
Answer: The inhibition of growth at 100 µg/mL was 0%.

Question: And the inhibition of growth at 100 µg/mL (Fusarium graminearum [3])?
Answer: The inhibition of growth at 100 µg/mL was 6.1%.

Question: With O=C(Nc1ccncc1)c1cn(-c2ccccc2)nc1C(F)(F)F as the molecule, how does the inhibition of growth at 100 µg/mL (Fusarium oxysporum [1]) read?
Answer: Its inhibition of growth at 100 µg/mL is 7.9%.

Question: And the inhibition of growth at 100 µg/mL (Cytospora [2])?
Answer: The inhibition of growth at 100 µg/mL was 0%.

Question: What about the inhibition of growth at 100 µg/mL (Fusarium graminearum [3]) of the same molecule?
Answer: Its inhibition of growth at 100 µg/mL is 11.3%.

Question: Which results are given for Cn1cc(C(=O)Nc2ccncc2)c(C(F)(F)F)n1?
Answer: inhibition of growth at 100 µg/mL (Fusarium oxysporum [1]): 11.8%; inhibition of growth at 100 µg/mL (Cytospora [2]): 2.9%; inhibition of growth at 100 µg/mL (Fusarium graminearum [3]): 26.3%

Question: Which results are given for O=C(Nc1ccnc(Cl)c1)c1cn(-c2ccccc2)nc1C(F)(F)F?
Answer: inhibition of growth at 100 µg/mL (Fusarium oxysporum [1]): 0%; inhibition of growth at 100 µg/mL (Cytospora [2]): 0%; inhibition of growth at 100 µg/mL (Fusarium graminearum [3]): 16.2%

Question: With CC1=C(C(=O)Nc2ccccc2)SCCO1 [CARBOXIN] as the molecule, how does the inhibition of growth at 100 µg/mL (Fusarium oxysporum [1]) read?
Answer: The inhibition of growth at 100 µg/mL was 23.6%.

Question: And the inhibition of growth at 100 µg/mL (Fusarium graminearum [3])?
Answer: The inhibition of growth at 100 µg/mL was 56.3%.
